Where two headings read alike, the source gives them in different places.
What was measured:
[1] = tested on: Leishmania major mCherry; experiment: Parasite killing in bone marrow-derived macrophages infected with Leishmania major mCherry (flow cytometry, microscopy); type: cell-based; conditions: for macrophage mediated parasite killing: BMDM infected with L. major mCherry, compounds tested individually
Protocol: The direct microbicidal effect of compounds against the Leishmania parasites in infected macrophages and neutrophils was evaluated.
Bone marrow-derived macrophages (BMDM) were cultured for 7 days, harvested and infected with Leishmania major mCherry for 2 hrs. Then the non-phagocytosed parasites were washed and dihydroquercetin, 3-(2-chloroacetamido) ethyl benzoate or bisabolol were added at different concentrations and incubated at different time points. • Parasites killing was evaluated by flow cytometry and microscopy. • NO production was assessed by Griess reaction from the supernatants.

[2] = tested on: Neutrophil; experiment: Neutrophil cell viability by flow cytometry with DAPI staining; type: cell-based
Protocol: Neutrophil cell viability was assessed by flow cytometry with DAPI staining pas 24 hours incubation with dihydroquercetin (5, 15 and 25 μM), 3-(2-chloroacetamido) ethyl benzoate (1, 2 and 4 μM) and bisabolol (0.05, 0.1 and 0.5% w/v).

[3] = tested on: Neutrophils infected with L. major mCherry; experiment: ROS production by neutrophils infected with L. major mCherry (Luminol); type: cell-based; conditions: MOI 1:10, Luminol for 90 min
Protocol: Neutrophils were isolated by Magnetic-activated cell sorting (MACS) and infected with L. major mCherry at a multiplicity of infection ratio (MOI) of 1:10.
Dihydroquercetin, […] ethyl benzoate or bisabolol at different concentrations were added and stimulated for 24 hours.
Kinetic of ROS production was measured by Luminol for 90 min.

[4] = tested on: Leishmania parasites; experiment: Individual evaluation against Leishmania parasites; conditions: evaluated individually

SMILES	direct microbicidal effect against L. major ([1]; infected macrophages and neutrophils, different concentrations)	neutrophil viability ([2]; 24 hours incubation, 1, 2 and 4 μM)	ROS production [3]	effect against Leishmania parasites [4]	macrophage mediated parasite killing [1]	cytotoxicity (neutrophil cell viability) ([2]; 24 hours incubation, 5, 15 and 25 μM)	cytotoxicity (neutrophil cell viability) [2]
CCOC(=O)c1cccc(NC(=O)CCl)c1 [3-(2-chloroacetamido) ethyl benzoate]	had a direct microbicidal effect against L. major	induced a reduction in neutrophil viability	decrease in ROS production	–	–	–	–
O=C1c2c(O)cc(O)cc2OC(c2ccc(O)c(O)c2)C1O (stereo not shown) [Dihydroquercetin]	–	–	–	no or limited effect	no impact on macrophage mediated parasite killing	no cytotoxicity	–
Cc1c(C)c2c(c(C)c1O)CC[C@@](C)(CCC[C@H](C)CCC[C@H](C)CCCC(C)C)O2 [alpha-tocopherol, (2R)-2,5,7,8-Tetramethyl-2-[(4R,8R)-(4,8,12-trimethyltridecyl)]-6-chromanol]	–	–	–	no or limited effect	–	–	–
CC(C)=CCCC(C)(O)C1CC=C(C)CC1 (stereo not shown) [bisabolol, 6-methyl-2-(4-methyl-3-cyclohexen-1-yl)-5-hepten-2-ol]	–	–	–	no or limited effect	no impact on macrophage mediated parasite killing	–	no cytotoxicity

From US20200155503A1, “COMPOSITIONS FOR USE FOR TREATING CUTANEOUS LEISHMANIASIS” (BIONOOX SA, priority 2017, published 2020)
